“Also recorded” adds a separate entry of the source. One block for each molecule: values may come before it.
What was measured:
Type in all cases: physicochemical
[1] = Competitive slurry experiments of Forms 1, 3, 8 and 9
Description: Approximately 5 mg of Compound A diacetate salt Forms 1, 3, 8 and 9 were combined into 8×4 mL vials. The appropriate solvent was added to form a slurry and the samples were shaken at ambient or 60° C. for ca. 48 hours. The samples were then removed from shaking and centrifuge filtered. […] The solids were recovered from the XRPD plate and placed back on to shake as before for an additional 3 days before being re-analyzed by XRPD. […]

[2] = Thermodynamic solubility in water and a pH 7.4 phosphate buffer; conditions: slurry agitated at ambient ca. 24 hours, HPLC; for solubility: diacetate; for solubility at 24 h: thermodynamic from solid
Description: (§1) 25.6 mL of 2-propanol was added to the lyophilized Compound A diacetate salt to form a slurry. The slurry was then temperature cycled between ambient and 40° C. in 4 hour cycles with agitation for ca. 24 hours. The slurry was then filtered and the isolated solids collected into a scintillation vial. A subsample was analyzed by XRPD and the vial was left uncapped to allow the solids to […] at ambient for ca. 24 hours. The material was then re-analyzed by XRPD post-drying and fully characterized using the following techniques: TG/DSC, DSC, DVS with post-DVS XRPD analysis, PLM, FT-IR, ^1H NMR, Purity by HPLC, TG/DSC with post TG/DSC XRPD analysis, and 7 Day Stability Assessment (ca. 10 mg of the material was stored at 40° C./75% RH. 80° C. and ambient light and humidity for 1 week. The solids were then analyzed by XRPD and purity obtained by HPLC). Thermodynamic solubility in water and a pH 7.4 phosphate buffer (The appropriate media was added in 100 μL aliquots to ca. 20 mg of the material to form a slurry. The samples were then sealed and agitated at ambient for ca. 24 hours before being centrifuge filtered. The isolated solids were analyzed by XRPD and the concentration of the mother liquors determined by HPLC).
The material appears highly insoluble in the phosphate buffer with all Forms having a solubility of 0.3 mg/mL except from Form 2 which has a solubility of 0.2 mg/mL.

[3] = Dynamic vapour sorption (DVS) with post-DVS XRPD; conditions: for form of recovered solid by post-DVS XRPD: after DVS cycles; for form conversion during DVS / weight loss on form conversion during DVS: at 50% RH
Description: Approximately, 10-20 mg of sample was placed into a mesh vapour sorption balance pan and loaded into a DVS Intrinsic dynamic vapour sorption balance by Surface Measurement Systems. The sample was subjected to a ramping profile from 40-90% relative humidity (RH) at 10% increments, maintaining the sample at each step until a stable weight had been achieved (dm/dt 0.004%, minimum step length 30 minutes, maximum step length 500 minutes) at 25° C. After completion of the sorption cycle, the sample was dried using the same procedure to 0% RH and then a second sorption cycle back to 40% RH. Two cycles were performed. The weight change during the sorption/desorption cycles were plotted, allowing for the hygroscopic nature of the sample to be determined. XRPD analysis was then carried out on any solid retained.

[4] = 7 Day Stability Assessment (XRPD form and HPLC purity after storage); conditions: diacetate; for one-week stability: form by XRPD: 1 week (Form 1: 2 and 7 days)
Description: as §1

[5] = Approximate solvent solubility screen of Compound A diacetate salt in 18 solvent systems; conditions: thermodynamic from solid
Description: Approximately 380 mg of Form 1 was dissolved in 35 mL of methanol and rotary evaporated. […] A sub-sample was taken for further characterization (TG/DSC, ^1H NMR and PLM). The crystalline material isolated post rotary-evaporation was re-dissolved in 27 mL of water. The solution remained slightly turbid so was syringe filtered to give a clear solution which was split equally among 18 vials to give approximately 20 mg of material per vial. The samples were then frozen at −50° C. before being lyophilized for ca. 72 hours. […] This material was used as input for the solvent solubility screen described below.
The solubility of Compound A diacetate salt was tested in 18 solvent systems. The appropriate solvent was added in 100 μL aliquots to approximately 20 mg of the lyophilized Compound A diacetate salt. Between each addition, the mixture was checked for dissolution and where no dissolution was apparent, the mixture was heated to ca. 40° C. and checked again. This procedure was continued until dissolution was observed or until 100 volumes of solvent had been added.
The solids were then isolated via centrifugal filtration and analyzed by XRPD. If the samples fully dissolved on addition of solvent (methanol and water only), they were uncapped and left to evaporate at ambient. Any solids recovered post-evaporation were then analyzed by XRPD.

[6] = Ethyl Acetate, 2000 μL, Ambient
[7] = ambient temperature and humidity

SMILES: CC(=O)O.CC(=O)O.N=C(N)c1ccc(OCCCCCOc2ccc(C(=N)N)nc2)cc1
XRPD Pattern (2 Days) ([1]; Acetone, 1000 μL, 60° C.): All patterns
XRPD Pattern (5 Days) ([1]; Acetone, 1000 μL, 60° C.): All patterns
XRPD Pattern (2 Days) ([1]; Acetone, 2000 μL, Ambient): All patterns
XRPD Pattern (5 Days) ([1]; Acetone, 2000 μL, Ambient): All patterns
XRPD Pattern (2 Days) ([1]; DCM, 1000 μL, 60° C.): All patterns
XRPD Pattern (5 Days) ([1]; DCM, 1000 μL, 60° C.): All patterns
XRPD Pattern (2 Days) ([1]; DCM, 2000 μL, Ambient): All patterns
XRPD Pattern (5 Days) ([1]; DCM, 2000 μL, Ambient): All patterns
XRPD Pattern (2 Days) ([1]; Ethanol, 1000 μL, 60° C.): 8 + 1
XRPD Pattern (2 Days) ([1]; Ethanol, 2000 μL, Ambient): 8 + 1
XRPD Pattern (5 Days) ([1]; Ethanol, 2000 μL, Ambient): 6
XRPD Pattern (2 Days) [1, 6]: All patterns
XRPD Pattern (5 Days) [1, 6]: All patterns
XRPD Pattern (2 Days) ([1]; Etyl Acetate, 1000 μL, 60° C.): All patterns
XRPD Pattern (5 Days) ([1]; Etyl Acetate, 1000 μL, 60° C.): 1 + 8

SMILES: CC(=O)O.CC(=O)O.N=C(N)c1ccc(OCCCCCOc2ccc(C(=N)N)nc2)cc1 [Form 1, 5-((5-(4-carbamimidoylphenoxy)pentyl)oxy)picolinimidamide diacetate]
solubility ([2]; pH 7.4 Phosphate Buffer): 300 µg/mL
solubility at 24 h ([2]; water): 49500 µg/mL
hygroscopicity by DVS ([3]; DVS, 25° C., diacetate): slightly hygroscopic
DVS: form post-DVS ([3]; XRPD post-DVS): water) at 90% RH. No change
form of recovered solid by post-DVS XRPD ([3]; 25° C., diacetate): remained as the received pattern 1; also recorded: No change in form
DVS ([3]; hygroscopicity / form change during DVS cycle, diacetate): Slightly hygroscopic
one-week stability: form by XRPD ([4]; 40° C./75% RH): no change in form
one-week stability: form by XRPD ([4]; 80° C.): no change in form
one-week stability: form by XRPD [4, 7]: no change in form
1 Week Stability ([4]; form by XRPD after storage at 40° C./75% RH, ambient or 80° C.): No change in form by XRPD

SMILES: CC(=O)O.CC(=O)O.N=C(N)c1ccc(OCCCCCOc2ccc(C(=N)N)nc2)cc1 [Form 2, 5-((5-(4-carbamimidoylphenoxy)pentyl)oxy)picolinimidamide diacetate]
solubility at 24 h ([2]; phosphate buffer, pH 7.4, aqueous buffer, pH 7.4 Phosphate Buffer): 200 µg/mL

SMILES: CC(=O)O.CC(=O)O.N=C(N)c1ccc(OCCCCCOc2ccc(C(=N)N)nc2)cc1 [Form 3, 5-((5-(4-carbamimidoylphenoxy)pentyl)oxy)picolinimidamide diacetate]
solubility ([2]; Water): 38500 µg/mL
solubility ([2]; pH 7.4 Phosphate Buffer): 200 µg/mL
form of recovered solid by post-DVS XRPD ([3]; 25° C., diacetate): conversion to Form 9
form conversion during DVS ([3]; 25° C., diacetate): convert to the hydrated Form 9; also recorded: convert to Form 9 (dihydrate)
weight loss on form conversion during DVS ([3]; 25° C., diacetate): approximately 4 wt. %
one-week stability: form by XRPD ([4]; 40° C./75% RH): convert to Form 1
one-week stability: form by XRPD ([4]; 80° C.): no change
one-week stability: form by XRPD [4, 7]: convert to Form 1

Now from value to molecule, other results behind:

solubility ([2]; Water): 38700 µg/mL
solubility ([2]; pH 7.4 Phosphate Buffer): 300 µg/mL
form of recovered solid by post-DVS XRPD ([3]; 25° C., diacetate): conversion of Form 8 to Form 1
form conversion during DVS ([3]; 25° C., diacetate): desolvate and convert to Form 1
weight loss on form conversion during DVS ([3]; 25° C., diacetate): 8.2 wt. %
DVS mass increase ([3]; at 90% RH, diacetate): hygroscopic with a 1.6% mass
one-week stability: form by XRPD ([4]; 40° C./75% RH): convert to Form 1
one-week stability: form by XRPD ([4]; 80° C.): no change in form
SMILES: CC(=O)O.CC(=O)O.N=C(N)c1ccc(OCCCCCOc2ccc(C(=N)N)nc2)cc1 [Form 8, 5-((5-(4-carbamimidoylphenoxy)pentyl)oxy)picolinimidamide diacetate]
one-week stability: form by XRPD [4, 7]: convert to Form 1; also recorded: partial conversion to Form 1

solubility ([5]; all solvents investigated except methanol and water, organic solvent or mixture, read-out: solubility): < 5000 µg/mL
solubility ([5]; organic solvent or mixture, 1,4-Dioxane, lyophilized material, ambient to ca. 40° C., read-out: Approximate Solvent Solubility): ≤ 5000 µg/mL
solubility ([5]; organic solvent or mixture, 2-Propanol, lyophilized material, ambient to ca. 40° C., read-out: Approximate Solvent Solubility): ≤ 5000 µg/mL
solubility ([5]; organic solvent or mixture, 2-methyl THF, lyophilized material, ambient to ca. 40° C., read-out: Approximate Solvent Solubility): ≤ 5000 µg/mL
solubility ([5]; organic solvent or mixture, Acetone, lyophilized material, ambient to ca. 40° C., read-out: Approximate Solvent Solubility): ≤ 5000 µg/mL
solubility ([5]; organic solvent or mixture, Acetonitrile, lyophilized material, ambient to ca. 40° C., read-out: Approximate Solvent Solubility): ≤ 5000 µg/mL
solubility ([5]; organic solvent or mixture, Dichloromethane, lyophilized material, ambient to ca. 40° C., read-out: Approximate Solvent Solubility): ≤ 5000 µg/mL
solubility ([5]; organic solvent or mixture, Dimethylsulfoxide, lyophilized material, ambient to ca. 40° C., read-out: Approximate Solvent Solubility): ≤ 5000 µg/mL
solubility ([5]; organic solvent or mixture, Ethanol, lyophilized material, ambient to ca. 40° C., read-out: Approximate Solvent Solubility): ≤ 5000 µg/mL
solubility ([5]; organic solvent or mixture, Ethyl Acetate, lyophilized material, ambient to ca. 40° C., read-out: Approximate Solvent Solubility): ≤ 5000 µg/mL
solubility ([5]; organic solvent or mixture, Isopropyl Acetate, lyophilized material, ambient to ca. 40° C., read-out: Approximate Solvent Solubility): ≤ 5000 µg/mL
solubility ([5]; organic solvent or mixture, Methanol, lyophilized material, ambient to ca. 40° C., read-out: Approximate Solvent Solubility): 20000 µg/mL
solubility ([5]; organic solvent or mixture, Methylethyl Ketone, lyophilized material, ambient to ca. 40° C., read-out: Approximate Solvent Solubility): ≤ 5000 µg/mL
solubility ([5]; organic solvent or mixture, N,N′-Dimethylacetamide, lyophilized material, ambient to ca. 40° C., read-out: Approximate Solvent Solubility): ≤ 5000 µg/mL
solubility ([5]; organic solvent or mixture, N,N′-Dimethylformamide, lyophilized material, ambient to ca. 40° C., read-out: Approximate Solvent Solubility): ≤ 5000 µg/mL
solubility ([5]; organic solvent or mixture, N-Methylpyrrolidone, lyophilized material, ambient to ca. 40° C., read-out: Approximate Solvent Solubility): ≤ 5000 µg/mL
solubility ([5]; organic solvent or mixture, Tetrahydrofuran, lyophilized material, ambient to ca. 40° C., read-out: Approximate Solvent Solubility): ≤ 5000 µg/mL
solubility ([5]; organic solvent or mixture, Toluene, lyophilized material, ambient to ca. 40° C., read-out: Approximate Solvent Solubility): ≤ 5000 µg/mL
solubility ([5]; Water, lyophilized material, ambient to ca. 40° C., read-out: Approximate Solvent Solubility): 50000 µg/mL
SMILES: CC(=O)O.CC(=O)O.N=C(N)c1ccc(OCCCCCOc2ccc(C(=N)N)nc2)cc1 [Compound A diacetate salt, 5-((5-(4-carbamimidoylphenoxy)pentyl)oxy)picolinimidamide diacetate]

From patent publication US20260274798A1, “PENTAMIDINE ANALOGUE POLYMORPHS, FORMULATIONS, AND METHODS THEREOF” (AURANSA INC., priority 2023, published 2026)
